Measured values: the supplement of paper PMC10307832

Experiments:
Assay in all cases: relative viability (nuclei count vs DMSO), 5 days (fraction); higher = more cells survive
[1] = compound: CN1CCC(CC1)OC2=CC(=C(C=C2)NC3=NC=C4C(=N3)N(C(=O)N4C)C5CCCC5)OC [AZ3146] + Nc1ncn([C@H]2C[C@H](O)[C@@H](CO)O2)c(=O)n1 [Decitabine] (partner 2 µM)
Summary of the method: (§1)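 A single step with final 0.05% Triton X-100, 1% formaldehyde and 1 ug/ml Hoechst fixed the cells and stained nuclei 5 days after treatment. Lung cancer cell lines in 1536-well plates had been treated by pin tool the day after seeding with one drug alone or a fixed anchor-drug dose plus five library-drug doses (not always all listed) in √10 steps, and nuclei were counted on 4× images. Relative viability is the ratio of nuclei in treated wells to nuclei in vehicle wells, taken as the median of duplicate plates.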

[2] = compound: CN1CCC(CC1)OC2=CC(=C(C=C2)NC3=NC=C4C(=N3)N(C(=O)N4C)C5CCCC5)OC [AZ3146] + Cc1nc(Nc2ncc(C(=O)Nc3c(C)cccc3Cl)s2)cc(N2CCN(CCO)CC2)n1 [Dasatinib] (partner 0.075 µM)
Summary of the method: as §1

[3] = compound: CCOC(=O)CCNc1cc(N2CCc3ccccc3CC2)nc(-c2ccccn2)n1 [GSK-J4] + O=C(CCCCCCC(=O)Nc1ccccc1)NO [Vorinostat] (partner 1 µM)
Summary of the method: as §1

[4] = compound: CN1CCC(CC1)OC2=CC(=C(C=C2)NC3=NC=C4C(=N3)N(C(=O)N4C)C5CCCC5)OC [AZ3146] + O=C(CCCCCCC(=O)Nc1ccccc1)NO [Vorinostat] (partner 1 µM)
Summary of the method: as §1

Cell Line | relative viability ([1]; first compound 0.08 µM) | relative viability ([1]; first compound 0.253 µM) | relative viability ([1]; first compound 0.8 µM) | relative viability ([1]; first compound 2.53 µM) | relative viability ([1]; first compound 8 µM) | relative viability ([2]; first compound 0.08 µM) | relative viability ([2]; first compound 0.253 µM) | relative viability ([2]; first compound 0.8 µM) | relative viability ([2]; first compound 2.53 µM) | relative viability ([2]; first compound 8 µM) | relative viability ([3]; first compound 0.5 µM) | relative viability ([3]; first compound 1.581 µM) | relative viability ([3]; first compound 5 µM) | relative viability ([3]; first compound 15.81 µM) | relative viability ([3]; first compound 50 µM) | relative viability ([4]; first compound 0.08 µM) | relative viability ([4]; first compound 0.253 µM) | relative viability ([4]; first compound 0.8 µM) | relative viability ([4]; first compound 2.53 µM) | relative viability ([4]; first compound 8 µM)
NCI-H2342 | 0.653 | 0.681 | 0.756 | 0.683 | 0.714 | 0.293 | 0.275 | 0.29 | 0.29 | 0.345 | 0.81 | 0.842 | 0.887 | 1.09 | 1.02 | 0.705 | 0.688 | 1.01 | 0.695 | 0.764
NCI-H1944 | 0.329 | 0.44 | 0.429 | 0.445 | 0.468 | 0.171 | 0.194 | 0.214 | 0.239 | 0.229 | 0.566 | 0.477 |  | 0.419 | 0.427 | 0.425 | 0.579 | 0.606 | 0.616 | 0.543
SK-LU-1 | 0.558 | 0.684 | 0.552 | 0.647 | 0.692 | 0.197 | 0.177 | 0.162 | 0.182 | 0.137 | 0.751 | 0.679 | 0.626 | 0.58 | 0.578 | 0.746 | 0.854 | 0.752 | 0.792 | 0.504
HCC-44 | 0.912 | 0.889 | 1.03 | 0.943 | 0.958 |  |  |  |  |  | 1.01 | 1.09 | 1.09 | 1.14 | 1.16 | 1.07 | 1.07 | 1.05 | 1.12 | 1.13
201T | 0.856 | 0.858 | 0.885 | 0.865 | 0.847 | 0.548 | 0.59 | 0.511 | 0.609 | 0.625 | 0.927 | 0.828 | 0.939 | 0.896 | 0.891 | 0.948 | 0.928 | 0.917 | 1.05 | 0.894
IA-LM |  |  |  |  |  |  |  |  |  |  | 0.901 |  | 1.34 | 0.711 | 0.294 | 0.674 | 0.872 | 1.01 | 0.924 | 1.06
NCI-H661 | 0.541 | 0.514 | 0.607 | 0.555 | 0.448 | 0.867 | 0.859 | 0.927 | 0.765 | 0.459 | 0.833 | 0.687 | 0.821 | 0.728 | 0.608 | 0.701 | 0.846 | 0.786 | 0.813 | 0.505
NCI-H2087 | 0.227 | 0.328 | 0.289 | 0.315 | 0.202 | 0.802 | 1.09 | 0.902 | 0.801 | 0.702 | 0.638 | 0.68 | 0.544 | 0.842 | 0.811 | 0.649 | 0.505 | 0.838 | 0.668 | 0.367
NCI-H647 | 0.359 | 0.521 | 0.381 | 0.441 | 0.329 | 0.214 | 0.186 | 0.178 | 0.216 | 0.138 | 0.59 | 0.719 | 0.553 | 0.646 | 0.43 | 0.537 | 0.426 | 0.607 | 0.667 | 0.186
A-427 | 0.511 | 0.529 | 0.528 | 0.56 | 0.401 | 0.561 | 0.775 | 0.651 | 0.828 | 0.66 | 0.814 | 0.518 |  | 0.785 | 0.393 | 0.763 | 0.881 | 0.833 | 0.809 | 0.593
NCI-H520 | 0.468 | 0.607 | 0.536 | 0.511 | 0.359 | 0.166 | 0.171 | 0.197 | 0.592 | 0.19 | 0.644 | 0.527 | 0.69 | 0.659 | 0.648 | 0.588 | 0.7 | 0.685 | 0.783 | 0.537
NCI-H1755 | 0.68 | 0.716 | 0.739 | 0.842 | 0.839 | 0.492 | 0.425 | 0.424 | 0.441 | 0.408 | 0.675 | 0.638 | 0.694 | 0.577 | 0.536 | 0.71 | 0.804 | 0.599 | 0.789 | 0.765
NCI-H1975 | 0.415 | 0.601 | 0.367 | 0.379 | 0.415 | 0.358 | 0.338 | 0.346 | 0.321 | 0.198 | 0.662 | 0.689 | 0.637 | 0.632 | 0.71 | 0.67 | 0.736 | 0.735 | 0.697 | 0.327
ChaGo-K-1 | 0.509 | 0.502 | 0.509 | 0.531 | 0.501 | 0.614 | 0.554 | 0.512 | 0.6 | 0.45 | 0.785 |  | 0.619 | 0.673 | 0.668 | 0.711 | 0.691 | 0.703 | 0.718 | 0.521
